Reference: patent US20230102836A1, “Amoebicidal Compositions for Contact Lens Solutions” (University of the West of Scotland, priority 2019, published 2023)
“And” between values parts separate entries of the source, which are not always exact repeats. Identical values can stand only once. Like-named read-outs stand apart in the source and are kept apart here.

Key:
[1] = QACs; cited from earlier work
gDNA from A. castellanii = assay: QAC-DNA interaction assay; assay type: binding, Acanthamoeba castellanii; conditions: DNA:QAC ratios 1:0, 1:1, 1:10, 1:20; 15 min
Method: FIGS. 3A and 3B show the QAC-DNA interaction. The absorbance of genomic DNA (0.6 ng/ml) extracted from A. castellani trophozoites measured at 260 nm with the Nanodrop after incubating for 15 minutes with 0 ng/ml, 0.6 ng/ml, 6 ng/ml or 12 ng/ml of QAC12 (FIG. 3A) or QAC16 (FIG. 3B) to give ratios of 1:0, 1:1, 1:10 and 1:20. DNA absorbance increased and decreased with increased […] and [QAC12] respectively. Data is mean absorbance at 260 nm±SD; n=4 independent experiments performed in triplicates.
Genomic deoxynucleic acids (gDNA) from 10^8 A. castellanii trophozoites (treated with and without QAC) were extracted from cells harvested by centrifugation (850×g, 10 min), lysed with UNSET buffer (8M urea, […] NaCl, 2% SDS, […] ethylenediaminetetraacetic acid (EDTA), […] Tris-HCl, pH 7.5) and the DNA extracted with phenol-chloroform (1:1 v/v). The biphasic suspension with DNA enriched on the […] was centrifuged (12,000×g for 15 min, 4° C.) for clear separation and transferred to a new microcentrifuge tube. The DNA was precipitated with cold ethanol (100%, v/v) and 0.3M sodium acetate, washed twice with 70% (v/v) ethanol (12,000×g for 10 min, 4° C.), air dried and resuspended in distilled water. […]

[2] = test system: Acanthamoeba trophozoites; assay: Checkerboard dilution QAC-APC interaction (Bliss model); assay type: cell-based, Acanthamoeba castellanii; conditions: APC12, APC14, APC16; 96 h at 25° C.
Method: Acanthamoeba trophozoites (10^5 cells/ml. n=5/treatment) treated with 100 μg/ml doubly diluted to 0.06 μg/ml of QAC12 (FIG. 7A), […], QAC16 (FIG. 7C) and QAC18 (FIG. 7D) with APC 12 (i), APCI 4 (ii) and APC16 (iii) for 96 h at 25° C. Cell viability estimated by the alamarBlue assay the dose-response curves used to produce a surface analysis (right panel) and the interaction profile determined using the Bliss model. The degree of interaction characterised by the QCScore heuristic score are produced as heat map (left panel). The colour of each cell in the heatmap and the surface analysis represents the assay response at that dose combination; red to orange, antagonistic: yellow to green, additive and blue, synergistic.
The change in potency between QAC and APC prompted us to used the checkerboard dilution method to identify synergistic interactions (FIG. 7A-D). Three interaction profiles, antagonistic (orange to red), additive (yellow to green) and synergistic (blue) were observed, with optimal synergistic interactions deemed to be significant occurring between 20-38%; (FIG. 7).

A. castellanii cysts [3] = assay: Cytotoxicity assay on cysts (trypan blue); assay type: cell-based, Acanthamoeba castellanii ATCC 50370; conditions: Acanthamoeba castellanii
Method: (§1) Acanthamoeba castellanii ATCC 50370 trophozoites and cysts were cultured in Peptone Glucose (PG) medium and encystment medium (Chagla A H, Griffiths A J (1974) Microbiology: 85(1): 139-145) respectively at 25° C. Cysts were prepared by incubating trophozoites for 8 days in encystment medium and integrity validated with calcofluor (0.25 μg/ml) assay (Gatti S et al (2010) J. Med. Microbiol.; 59: 1324-1330) or sodium dodecyl sulfate (SDS, 0.5% w/v) disintegration assay (Dudley R et al (2005) Acta Trop.; 9: 100-8) and microscopic observation.
The compounds used in this study all contained alkyl-carbon chains: three APCs [dodecyl-PC (APC12), tetradecyl-PC. (APC14) and hexadecyl-PC (APC16)] (Anatrace) and four QACs [docdecyl-TMAB (QAC12), tetradecyl-TMAB (QAC14), hexadecyl-TMAB (QAC16) and octadecyl-TMAB (QAC18)](Sigma). All were prepared to a stock concentration of 1 mg/ml and diluted as required by the experimental protocol in the cytotoxicity assays. A. castellanii trophozoites and cysts (at 10^5 cells/ml) with or without APCs or QACs (concentrations ranging from […] doubly diluted to 0.04 μg/ml to a final volume of 100 μl) in a 96-well plate were incubated at 25° C. for a duration determined by the experimental protocol.
For the combined assay, similar concentrations of QAC18 and APC16 were prepared and 18.75 μg/ml and 37.5 μg/ml of QAC12 added (to a final volume of 100 μl) were added to 10^5 cells/mi in a 96-well plate and later incubated at 25° C. for a duration determined by the experimental protocol. Resazurin (7-Hydroxy-31-phenoxazin-3-one 10-oxide; 5 mg/ml; McBride J et al (2005) J. Clin. Microbiol.; 43: 629-634) and trypan blue (0.4 μg/ml; Mafra C S P et al (2013) Investig. Ophthalmol. Vis. Si.; 54: 6363-6372) were then added to trophozoites and cysts respectively after being exposed to the compounds and the cell viability estimated microscopically and from changes in absorbance (at 595 nm and 570 nm) respectively.
(§2) Efficacy was expressed as a percentage of untreated controls for each drug concentration used and the data used to calculate the IC50. Cell density was estimated using the modified Neubaur hemocytometer and expressed as cells/ml.

[4] = test system: A. castellanii trophozoites; assay: Trophozoite-cyst conversion in encystment medium; assay type: cell-based, Acanthamoeba castellanii ATCC 50370; conditions: encystment medium supplemented with 37.5 μg/ml of QAC12
Method: Acanthamoeba trophozoites (10^5 cells/ml) incubated for up to 192 h in encystment medium inoculated with (dark grey) and without (light grey) QAC12 at 25° C. The number of trophozoites remaining estimated microscopically and expressed as a percent of total trophozoites at the start of the assay. Data is mean […]±SD; n=4 independent experiments performed in triplicates.
as §1

[5] = test system: A. castellanii trophozoites; assay: Cytotoxicity assay on trophozoites (resazurin / alamarBlue); assay type: cell-based, Acanthamoeba castellanii ATCC 50370; conditions: for IC50: Acanthamoeba castellanii, Table 2, read-out: IC50 A. castellanii trophozoites
Method: as §1
The compounds used in this study all contained alkyl-carbon chains: three APCs [dodecyl-PC (APC12), tetradecyl-PC. (APC14) and hexadecyl-PC (APC16)] (Anatrace) and four QACs [docdecyl-TMAB (QAC12), tetradecyl-TMAB (QAC14), hexadecyl-TMAB (QAC16) and octadecyl-TMAB (QAC18)](Sigma). All were prepared to a stock concentration of 1 mg/ml and diluted as required by the experimental protocol in the cytotoxicity assays. […]
[…] Resazurin (7-Hydroxy-31-phenoxazin-3-one 10-oxide; 5 mg/ml; McBride J et al (2005) J. Clin. Microbiol.; 43: 629-634) and trypan blue (0.4 μg/ml; Mafra C S P et al (2013) Investig. Ophthalmol. Vis. Si.; 54: 6363-6372) were then added to trophozoites and cysts respectively after being exposed to the compounds and the cell viability estimated microscopically and from changes in absorbance (at 595 nm and 570 nm) respectively.
as §2

A. castellanii cysts [6] = assay: Drug wash-out / alamarBlue-reversion assay, cysts; assay type: cell-based, Acanthamoeba castellanii ATCC 50370; conditions: for Back transformation to trophozoites after drug wash-out: Cysts; on Back transformation to trophozoites after drug wash-out: key: +: indicates cells reverting back to trophozoites after washout; and capable of oxidizing reduced alamarBlue from blue to pink after 8 days; −: indicates cell that did not revert to trophozoites after wash-out and unable to oxidise reduced alamarBlue solution
Method: For the drug kinetic assay, viability was assessed by the linked alamarBlue-reversion assay. Drug-treated cysts were washed with PBS and fresh PG medium was added to allow reversion to trophozoites for 5 days, after which, alamar blue was added and viability estimated as described above.
The cysticidal activity of QAC16 to QAC18 strongly correlated with (a) the alkyl-carbon chain lengths (Table 2) and the duration of drug contact (FIG. 8H). Like trophozoites, death was via leakage judged by 40% and 50% increase in DNA and proteins in the external milieu after 1 h (FIGS. 9A and 9B). To investigate if the cyst were viable, a complementary viability assay that involved, drug washout, incubation in PG medium to allow reversion of viable cyst to trophozoite for 7 days, and estimation of viability using the oxidation of resazurin after 6 h.

[7] = test system: A. castellanii trophozoites; assay: Drug wash-out / alamarBlue-reversion assay, trophozoites; assay type: cell-based, Acanthamoeba castellanii ATCC 50370
[8] = read-out: IC50 A. castellanii cysts

## CCCCCCCCCCCC[N+](C)(C)C.[Br-] [QAC12, Dodecyltrimethyl ammonium bromide]
[1]
  CMC: ^+3.5 ± 0.3 μM
gDNA from A. castellanii
  Change of gDNA absorbance at 260 nm with increasing QAC: dose-dependent decreased absorbance
[2]
  Interaction profile of QAC combined with APCs: Significant synergistic ‘well defined’ interactions were more predominant
A. castellanii cysts [3]; [8]
  IC50: > 37.5 µg/mL and > 122 µM
[4]
  Delay of encystation: 96 h
[5]; 96 h at 25° C., peak at 37.7 μg/ml, alamarBlue
  Increase in absorbance at 570 nm (cell density) relative to control cells: 4 fold
[5]
  IC50: > 37.5 µg/mL and > 122 µM
[5]; FIG. 4
  Effect on trophozoite biomass: dose-dependent increased biomass
[5]; at up to 37.5 μg/ml
  Activity against A. castellanii trophozoites: inactive

## CCCCCCCCCCCCCCCC[N+](C)(C)C.[Br-] [QAC16, hexadecyltrimethyl ammonium bromide]
[1]
  CMC: 0.26 ± 0.2 µM
A. castellanii cysts [6]; 37.5 μg/ml after 48 h
  Resurgence of cysts after drug washout: No resurgence
A. castellanii cysts [6]; 9.375 μg/ml, 24 h
  Back transformation to trophozoites after drug wash-out: +
A. castellanii cysts [6]; 9.375 μg/ml, 48 h
  Back transformation to trophozoites after drug wash-out: +
A. castellanii cysts [6]; 9.375 μg/ml, 72 h
  Back transformation to trophozoites after drug wash-out: +
A. castellanii cysts [6]; 18.75 μg/ml, 24 h
  Back transformation to trophozoites after drug wash-out: +
A. castellanii cysts [6]; 18.75 μg/ml, 48 h
  Back transformation to trophozoites after drug wash-out: +
A. castellanii cysts [6]; 18.75 μg/ml, 72 h
  Back transformation to trophozoites after drug wash-out: +
A. castellanii cysts [6]; 37.50 μg/ml, 24 h
  Back transformation to trophozoites after drug wash-out: +
A. castellanii cysts [6]; 37.50 μg/ml, 48 h
  Back transformation to trophozoites after drug wash-out: −
A. castellanii cysts [6]; 37.50 μg/ml, 72 h
  Back transformation to trophozoites after drug wash-out: −
[2]
  Interaction profile of QAC combined with APCs: less frequent and ‘noisy’
A. castellanii cysts [3]; 96 h, read-out: Estimated IC50 against matured cysts
  IC50: 19 ± 0.03 µg/mL
A. castellanii cysts [3]; [8]
  IC50: 19.2 µg/mL and 72 µM
[7]; 9.375 μg/ml, 1 h
  Back transformation to trophozoites after drug wash-out: +
[7]; 9.375 μg/ml, 24 h
  Back transformation to trophozoites after drug wash-out: +
[7]; 9.375 μg/ml, 48 h
  Back transformation to trophozoites after drug wash-out: +
[7]; 9.375 μg/ml, 72 h
  Back transformation to trophozoites after drug wash-out: +
[7]; 9.375 μg/ml, 96 h
  Back transformation to trophozoites after drug wash-out: +
[7]; 18.75 μg/ml, 1 h
  Back transformation to trophozoites after drug wash-out: +
[7]; 18.75 μg/ml, 24 h
  Back transformation to trophozoites after drug wash-out: −
[7]; 18.75 μg/ml, 48 h
  Back transformation to trophozoites after drug wash-out: −
[7]; 18.75 μg/ml, 72 h
  Back transformation to trophozoites after drug wash-out: −
[7]; 18.75 μg/ml, 96 h
  Back transformation to trophozoites after drug wash-out: −
[7]; 37.50 μg/ml, 1 h
  Back transformation to trophozoites after drug wash-out: −
[7]; 37.50 μg/ml, 24 h
  Back transformation to trophozoites after drug wash-out: −
[7]; 37.50 μg/ml, 48 h
  Back transformation to trophozoites after drug wash-out: −
[7]; 37.50 μg/ml, 72 h
  Back transformation to trophozoites after drug wash-out: −
[7]; 37.50 μg/ml, 96 h
  Back transformation to trophozoites after drug wash-out: −
[7]; after 24 h at 18.75 μg/ml
  Amoebotoxicity after wash-out and replacement with PG medium: amoebotoxic
[7]; from 1 h onwards at 37.5 μg/ml
  Amoebotoxicity after wash-out and replacement with PG medium: amoebotoxic
[5]
  IC50: 4.9 µg/mL and 19 µM
